Experimental data taken from ChEMBL document CHEMBL3886260, “Amide or urea containing benzothiazole inhibitors of endothelial lipase” (2015).

biological target: T1, Endothelial lipase (Homo sapiens, UniProt Q9Y5X9); assay: Biological Assay: Endothelial lipase activity was measured using a fluorescent substrate, A10070, (Invitrogen, CA) doped into an artificial vesicle containing DMPG (Avanti Polar Lipids) as the excipient. Vesicles were prepared by combining 285 uL, of 1 mM DMPG in a 1:1 mixture of MeOH and CHCl3 with 15 uL, of 1 mM A10070 in a 1:1 mixture of MeOH and CHCl3. The mixture was dried under nitrogen and resuspended in 150 uL, of 50 mM HEPES pH 8.0 buffer containing 100 mM NaCl and 0.2 mM EDTA. The sample was allowed to sit at rt for 15 min and then was sonicated 3x4 mins on ice with a Branson Sonicator using duty cycle 1. This preparation provides vesicles with a mole fraction of 0.05 for the FRET substrate.The enzymatic assay was measured using white, opaque 96-well half area plates. Each well contained 60 uL, of assay buffer (50 mM HEPES pH 8.0, 50 mM NaCl and 1 mM CaCl2) and 2 ul of a DMSO solution containing compound of interest. Conditioned media obtained from HT-1080 cells.; format: cell-based
T1 sequence (Q9Y5X9 whole entry): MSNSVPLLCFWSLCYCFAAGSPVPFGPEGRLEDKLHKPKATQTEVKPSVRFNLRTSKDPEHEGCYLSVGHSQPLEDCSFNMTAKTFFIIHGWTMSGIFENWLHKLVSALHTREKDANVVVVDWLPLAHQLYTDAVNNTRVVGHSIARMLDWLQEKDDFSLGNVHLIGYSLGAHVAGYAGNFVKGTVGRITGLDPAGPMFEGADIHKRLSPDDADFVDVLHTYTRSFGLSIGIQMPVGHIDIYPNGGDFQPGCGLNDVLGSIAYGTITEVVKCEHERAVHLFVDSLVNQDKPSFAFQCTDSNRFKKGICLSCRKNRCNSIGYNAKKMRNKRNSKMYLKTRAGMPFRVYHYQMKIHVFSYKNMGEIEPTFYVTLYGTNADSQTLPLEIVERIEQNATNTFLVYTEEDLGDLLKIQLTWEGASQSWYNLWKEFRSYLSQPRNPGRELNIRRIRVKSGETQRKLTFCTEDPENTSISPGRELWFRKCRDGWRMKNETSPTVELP

| IC50 [nM] | SMILES |
| --- | --- |
| < 10 | CC(C)(C)OC(=O)NC(c1nnc(CNS(N)(=O)=O)o1)c1nc2ccc(-c3ccccc3)cc2s1 (stereo not drawn) |
| < 10 | CC(=O)NC(c1nnc(C2CN(C(=O)OC(C)(C)C)C2)o1)c1nc2ccc(-c3ccccc3)cc2s1 (stereo not drawn) |
| < 10 | O=C(NC(c1nnc(CS(=O)(=O)O)o1)c1nc2ccc(-c3ccccc3)cc2s1)c1ccc(C(F)(F)F)cc1 (stereo not drawn) |
